Data from publication PMC6021035, “Insights into biological activity of ureidoamides with primaquine and amino acid moieties” (Journal of Enzyme Inhibition and Medicinal Chemistry, 2018).
≈ marks a conversion by molar mass, not a printed value.

Experiments:
E. coli (both strains) = test: Minimum biofilm eradication assay, E. coli both strains; type: cell-based, Escherichia coli
Protocol: We tested the susceptibility of different bacterial and yeast strains to compounds 5a–f by determining the minimum biofilm eradication concentration (MBEC). The test was performed in a sterile 96-well flat-bottom plastic tissue culture plate (TPP, Switzerland). Each well was filled with 100 µl of bacterial (10^7 CFUs/ml) or yeast (5 × 10^6 CFUs/ml) suspension. When the possibility of inhibition of yeast biofilm formation was tested, the wells were pre-treated with FBS (250 µl per well). Negative controls contained broth only. Positive controls were performed using standard antibacterial and antifungal drugs gentamycin and amphotericin B, respectively. The plates were covered and incubated aerobically for 24 h (bacteria) or 48 h (yeast) at 37 °C. Following the incubation period, each well was aspirated and washed three times with 250 µl of PBS and vigorously shaken in order to remove all non-adherent bacteria/yeast. The remaining attached cells were fixed with methanol (15 min) and the plates were left to dry overnight. The formed biofilm was stained with crystal violet (1%, 5 min). Excess stain was rinsed by placing the plate under running tap water and the plates were left to dry for 24 h. Adherent cells were resolubilized with acetic acid (33%, v/v). The optical density of each well was measured at 570 nm using a Multiscan plate reader. […]

[1] = test system: Pseudomonas aeruginosa ATCC 9027; test: Minimum biofilm eradication assay; type: cell-based
Protocol: (§1) We tested the susceptibility of different bacterial and yeast strains to compounds 5a–f by determining the minimum biofilm eradication concentration (MBEC). The test was performed in a sterile 96-well flat-bottom plastic tissue culture plate (TPP, Switzerland). Each well was filled with 100 µl of bacterial (10^7 CFUs/ml) or yeast (5 × 10^6 CFUs/ml) suspension. When the possibility of inhibition of yeast biofilm formation was tested, the wells were pre-treated with FBS (250 µl per well). Negative controls contained broth only. Positive controls were performed using standard antibacterial and antifungal drugs gentamycin and amphotericin B, respectively. The plates were covered and incubated aerobically for 24 h (bacteria) or 48 h (yeast) at 37 °C. Following the incubation period, each well was aspirated and washed three times with 250 µl of PBS and vigorously shaken in order to remove all non-adherent bacteria/yeast. The remaining attached cells were fixed with methanol (15 min) and the plates were left to dry overnight. The formed biofilm was stained with crystal violet (1%, 5 min). Excess stain was rinsed by placing the plate under running tap water and the plates were left to dry for 24 h. Adherent cells were resolubilized with acetic acid (33%, v/v). The optical density of each well was measured at 570 nm using a Multiscan plate reader. The MBEC value represents the lowest compound dilution at which microorganisms fail to grow.

[2] = test system: Staphylococcus aureus ATCC 25213; test: Minimum biofilm eradication assay; type: cell-based
Protocol: as §1

[3] = test system: Enterococcus faecalis ATCC 29212; test: Minimum biofilm eradication assay; type: cell-based
Protocol: as §1

[4] = test system: Escherichia coli ATCC 8739; test: Minimum biofilm eradication assay; type: cell-based
Protocol: as §1

[5] = test system: Staphylococcus aureus ATCC 6538; test: Minimum biofilm eradication assay; type: cell-based
Protocol: as §1

[6] = test system: Pseudomonas aeruginosa ATCC 27853; test: Minimum biofilm eradication assay; type: cell-based
Protocol: as §1

[7] = test system: Candida parapsylosis ATCC 22019; test: Minimum biofilm eradication assay; type: cell-based
Protocol: as §1

[8] = test system: Escherichia coli ATCC 10536; test: Minimum biofilm eradication assay; type: cell-based
Protocol: as §1

[9] = Interaction with 1,1-diphenyl-2-picrylhydrazyl (DPPH); conditions: 100 μΜ
Protocol: To a solution of DPPH in absolute ethanol, an appropriate volume of the tested compound solution (0.1 mM final concentration) dissolved in DMSO was added. Absorbance was recorded at 517 nm after 20 and 60 min at room temperature (Lambda 20 double beam spectrophotometer, Perkin-Elmer, UK). Experiments were repeated at least in triplicate and the standard deviation of absorbance was less than 10% of the mean[10]. NDGA was used under the same experimental conditions as a reference compound.

[10] = test system: Candida albicans ATCC 10231; test: MIC determination (broth micro-dilution); type: cell-based; conditions: ATCC10231
Protocol: (§2) Before analysis, compounds 5a–f were dissolved in 96% ethanol in a concentration of 2 mg/ml as stock solutions. Inoculums were prepared with fresh cultures of microbial strains, cultured on tryptic-soy agar or Sabouraud 2% (m/v) dextrose agar for 18 h (48–72 h for fungi) at 30 °C with physiological saline containing approximately […]. Inoculum density (0.5 McFarland units) was adjusted with a bio Mériex (France) densitometer. Minimum inhibitory concentration (MIC) was determined by the twofold micro-dilution method in Mu¨ller–Hinton broth for bacterial strains and RPMI 1640 + 2% m/v dextrose for fungi according to the EUCAST recommendations in a sterile 96-well flat-bottom plastic tissue culture plate. MIC was determined using a linear regression curve after incubation of compounds and reading the optical density at 570 nm using an iEMS microplate reader. […] All tests were performed in triplicate and expressed as the mean.

Candida kefyr ATCC 2512 [11] = test: MIC determination (broth micro-dilution); type: cell-based; conditions: Kluyveromyces marxianus, ATCC2512
Protocol: as §2

[12] = test system: Aspergillus niger ATCC 16404; test: MIC determination (broth micro-dilution); type: cell-based; conditions: ATCC16404
Protocol: as §2

[13] = test system: Candida albicans ATCC 90028; test: MIC determination (broth micro-dilution); type: cell-based; conditions: ATCC90028
Protocol: as §2

[14] = test system: Issatchenkia orientalis Kudrjanzev ATCC 6258; test: MIC determination (broth micro-dilution); type: cell-based; conditions: Pichia kudriavzevii, ATCC6258
Protocol: as §2

[15] = test system: Candida tropicalis ATCC 750; test: MIC determination (broth micro-dilution); type: cell-based; conditions: ATCC750
Protocol: as §2

[16] = test system: Candida krusei ATCC 14243; test: MIC determination (broth micro-dilution); type: cell-based; conditions: Pichia kudriavzevii, ATCC14243
Protocol: as §2

[17] = test system: Candida albicans ATCC 10231; test: Minimum biofilm eradication assay; type: cell-based; conditions: ATCC10231, 48 h, read-out: MBEC
Protocol: as §1

Candida kefyr ATCC 2512 [18] = test: Minimum biofilm eradication assay; type: cell-based; conditions: Kluyveromyces marxianus, ATCC2512, 48 h, read-out: MBEC
Protocol: as §1

[19] = test system: Candida albicans ATCC 90028; test: Minimum biofilm eradication assay; type: cell-based; conditions: ATCC90028, 48 h, read-out: MBEC
Protocol: as §1

[20] = test system: Candida tropicalis ATCC 750; test: Minimum biofilm eradication assay; type: cell-based; conditions: ATCC750, 48 h, read-out: MBEC
Protocol: as §1

[21] = test system: Candida krusei ATCC 14243; test: Minimum biofilm eradication assay; type: cell-based; conditions: Pichia kudriavzevii, ATCC14243, 48 h, read-out: MBEC
Protocol: as §1

[22] = test system: Enterococcus hyrae ATCC 8043; test: MIC determination (broth micro-dilution); type: cell-based; conditions: ATCC8043
Protocol: as §2

[23] = test system: Staphylococcus aureus ATCC 25923; test: MIC determination (broth micro-dilution); type: cell-based; conditions: ATCC25923
Protocol: as §2

[24] = test system: Pseudomonas aeruginosa ATCC 9027; test: MIC determination (broth micro-dilution); type: cell-based; conditions: ATCC9027
Protocol: as §2

[25] = test system: Staphylococcus aureus ATCC 25213; test: MIC determination (broth micro-dilution); type: cell-based; conditions: ATCC25213
Protocol: as §2

[26] = test system: Enterococcus faecalis ATCC 29212; test: MIC determination (broth micro-dilution); type: cell-based; conditions: ATCC29212
Protocol: as §2

[27] = test system: Escherichia coli ATCC 8739; test: MIC determination (broth micro-dilution); type: cell-based; conditions: ATCC8739
Protocol: as §2

[28] = test system: Staphylococcus aureus ATCC 6538; test: MIC determination (broth micro-dilution); type: cell-based; conditions: ATCC6538
Protocol: as §2

[29] = test system: Pseudomonas aeruginosa ATCC 27853; test: MIC determination (broth micro-dilution); type: cell-based; conditions: ATCC27853
Protocol: as §2

[30] = test system: Burkholderia caepacia ATCC 25416; test: MIC determination (broth micro-dilution); type: cell-based; conditions: ATCC25416
Protocol: as §2

[31] = test system: Bacillus subtilis ATCC 6633; test: MIC determination (broth micro-dilution); type: cell-based; conditions: ATCC6633
Protocol: as §2

[32] = test system: Candida parapsylosis ATCC 22019; test: MIC determination (broth micro-dilution); type: cell-based; conditions: ATCC22019
Protocol: as §2

[33] = test system: Bacillus cereus ATCC 11778; test: MIC determination (broth micro-dilution); type: cell-based; conditions: ATCC11778
Protocol: as §2

[34] = test system: Kocuria rhizophila ATCC 9341; test: MIC determination (broth micro-dilution); type: cell-based; conditions: ATCC9341
Protocol: as §2

[35] = test system: Escherichia coli ATCC 10536; test: MIC determination (broth micro-dilution); type: cell-based; conditions: ATCC10536
Protocol: as §2

[36] = Inhibition of linoleic acid peroxidation (LP), AAPH-initiated; parameters: tested at 100 µM; conditions: 100 μΜ, 37 °C
Protocol: To initiate lipid peroxidation, the free radical AAPH was used[10]. The final solution in the UV cuvette consisted of 10 µl sodium linoleate solution (c = 16 mM) and 0.93 ml phosphate buffer pH 7.4 (c = 50 mM). Afterwards, 10 µl of the tested compound solution in DMSO (final concentration 0.1 mM) and 50 µl of AAPH solution (c = 40 mM) were added. The experiment was performed at 37 °C under air. Oxidation of linoleic acid sodium salt was monitored at 234 nm. The assay was repeated at least in triplicate and the standard deviation of absorbance was less than 10% of the mean. Trolox was used under the same experimental conditions as a reference compound.

Molecule: gentamycin [reference compound]
- MBEC (E. coli (both strains)): 25 µg/mL
- MBEC [1]: 50 µg/mL
- MBEC [2]: 12.5 µg/mL
- MBEC [3]: 50 µg/mL
- MBEC [4]: 25 µg/mL
- MBEC [5]: 12.5 µg/mL
- MBEC [6]: 50 µg/mL
- MBEC [7]: 50 µg/mL
- MBEC [8]: 25 µg/mL

Molecule: CC(Cc1ccc(O)c(O)c1)C(C)Cc1ccc(O)c(O)c1 (centres unmarked) [NDGA, nordihydroguaiaretic acid, reference compound]
- DPPH-reducing ability 20 min ([9]; 20 min): 83.0 ± 1.0%
- DPPH-reducing ability 60 min ([9]; 60 min): 91.0 ± 1.7%

Molecule: C[C@@H]1[C@H](O)[C@@H](C)/C=C/C=C/C=C/C=C/C=C/C=C/C=C/[C@H](O[C@@H]2O[C@H](C)[C@@H](O)[C@H](N)[C@@H]2O)C[C@@H]2O[C@](O)(C[C@@H](O)C[C@@H](O)[C@H](O)CC[C@@H](O)C[C@@H](O)CC(=O)O[C@H]1C)C[C@H](O)[C@H]2C(=O)O [Amph, amphotericin B, reference compound]
- MIC [10]: 0.5 µg/mL (≈ 0.541 µM)
- MIC (Candida kefyr ATCC 2512 [11]): 0.5 µg/mL (≈ 0.541 µM)
- MIC [12]: 0.5 µg/mL (≈ 0.541 µM)
- MIC [13]: 0.5 µg/mL (≈ 0.541 µM)
- MIC [14]: 0.5 µg/mL (≈ 0.541 µM)
- MIC [15]: 0.5 µg/mL (≈ 0.541 µM)
- MIC [16]: 0.5 µg/mL (≈ 0.541 µM)
- minimal effective concentration [17]: 25 µg/mL
- minimal effective concentration (Candida kefyr ATCC 2512 [18]): 25 µg/mL
- minimal effective concentration [19]: 25 µg/mL
- minimal effective concentration [20]: 50 µg/mL
- minimal effective concentration [21]: 50 µg/mL

Molecule: CN(C)[C@@H]1C(O)=C(C(N)=O)C(=O)[C@@]2(O)C(O)=C3C(=O)c4c(O)cccc4[C@@](C)(O)[C@H]3C[C@@H]12 [TC, tetracycline, reference compound]
- MIC [22]: 0.63 µg/mL (≈ 1.42 µM)
- MIC [23]: 0.31 µg/mL (≈ 0.698 µM)
- MIC [24]: 3 µg/mL (≈ 6.75 µM)
- MIC [25]: 0.16 µg/mL (≈ 0.36 µM)
- MIC [26]: 0.31 µg/mL (≈ 0.698 µM)
- MIC [27]: 2.5 µg/mL (≈ 5.63 µM)
- MIC [28]: 0.31 µg/mL (≈ 0.698 µM)
- MIC [29]: 3 µg/mL (≈ 6.75 µM)
- MIC [30]: 3 µg/mL (≈ 6.75 µM)
- MIC [31]: 0.31 µg/mL (≈ 0.698 µM)
- MIC [32]: 6.13 µg/mL (≈ 13.8 µM)
- MIC [33]: 0.31 µg/mL (≈ 0.698 µM)
- MIC [34]: 0.63 µg/mL (≈ 1.42 µM)
- MIC [35]: 2.5 µg/mL (≈ 5.63 µM)

Molecule: Cc1c(C)c2c(c(C)c1O)CCC(C)(C(=O)O)O2 (centres unmarked) [Trolox, 6-hydroxy-2,5,7,8-tetramethylchroman-2-carboxylic acid, reference compound]
- LP inhibition (%) ± SD [36]: 96 ± 2.0%
